Reference: patent US11530237B2, “Compositions and methods for treating CNS disorders” (Sage Therapeutics, Inc., priority 2014, dated 2022)

Tests used:
[1] = system: PTZ-treated mice; test: Acute PTZ method (pentylenetetrazol-induced seizure assay); format: in vivo; conditions: Mus musculus, lowest dose with significant effect on latency to tonic seizures, PO, read-out: Anticonvulsive Effect Dose (minimal effective anticonvulsant dose)
Description: The anticonvulsant effect of test compounds were assessed in a pentylenetetazol-induced seizure assay in mice similar to methods described in Giardina & Gasior (Curr Protoc Pharmacol. 2009). Male CD-1 mice were housed in groups of five under controlled conditions (temperature of 22±2° C. and 12:12 light-dark cycle, lights on at 8:00 am) and water and food were available ad libitum. The mice were housed for 1 week prior to behavioral testing, at which time they weighed 25-35 g. Pentylenetetrazol (PTZ, Sigma) was dissolved in sterile 0.9% saline at a concentration of 12 mg/mL concentration for subcutaneous administration. Test compounds were formulated and administered via oral gavage or intraperitoneal injection at a predetermined time-point (typically 30 or 60 minutes) prior to PTZ injection. All solutions were made fresh and given in a volume corresponding to 10 ml/kg body weight.
Mice were acclimated to the test room for at least 30 min before compound administration. Mice were randomized into at least four test groups (vehicle and at least three doses of the test compound) with 10 mice per group. […] Following the drug pretreatment time the mice were injected s.c. with PTZ (120 mg/kg). Immediately following the PTZ injection, mice were individually placed into observation chambers (25×15×15 cm) and a three-channel timer was started. Each mouse was continuously observed for 30 min and the following behaviors were recorded by observers blinded to the treatments: 1) latency to clonic convulsions that persist for 3 sec and followed by an absence of righting reflex 2) latency to tonic convulsions, characterized by the rigid extension of all four limbs that exceeded a 90 degree angle with the body 3) latency to death 4) number of clonic and tonic convulsions. Data are presented as mean±S.E.M and one-way ‘nalysis of vari’nce with Dunnett's or Bonferroni's post-hoc test was used to detect significant differences in latency and number between the vehicle and dose group, p values<0.05 were regarded as statistically significant.

[2] = target: α4β3δ GABAA receptors (Homo sapiens (Human), UniProt P28472+P48169); test: Patch clamp electrophysiology (manual patch) of recombinant α4β3δ GABAA receptors in CHO cells; format: cell-based; conditions: 10 μM test article, GABA EC20 = 2 μM, read-out: GABA (α4β3δ) Manual patch in CHO, % efficacy at 10 μM
Description: Cellular electrophysiology is used to measure the pharmacological properties of our GABAA receptor modulators in heterologous cell systems. Each compound is tested for its ability to affect GABA mediated currents at a suhmaximal agonist dose (GABA EC20=2 μM). LTK cells are stably transfected with the α1β2γ2 subunits of the GABA receptor and CHO cells are transiently transfected with the α4β3δ subunits via the Lipofecatamine method. Cells were passaged at a confluence of about 50-80% and then seeded onto 35 mm sterile culture dishes containing 2 ml culture complete medium without antibiotics or antimycotics. Confluent clusters of cells are electrically coupled (Pritchett et al., Science, 1988, 242, 1306-1308). Because responses in distant cells are not adequately voltage clamped and because of uncertainties about the extent of coupling (Verdoom et al., Neuron 1990, 4, 919-928), cells were cultivated at a density that enables the recording of single cells (without visible connections to other cells).
Whole cell currents were measured with HEKA EPC-10 amplifiers using PatchMaster software or by using the high throughput QPatch platform (Sophion). Bath solution for all experiments contained (in mM): NaCl 137 mM, KCl 4 mM, CaCl2 1.8 mM, MgCl2 1 mM, HEPES 10 mM, D-Glucose 10 mM, pH (NaOH) 7.4. In some cases 0.005% cremophor was also added. Intracellular (pipette) solution contained: KCl 130 mM, MgCl2 1 mM, Mg-ATP 5 mM, HEPES 10 mM, EGTA 5 mM, pH 7.2. During experiments, cells and solutions were maintained at room temperature (19° C.-30° C.). For manual patch clamp recordings, cell culture dishes were placed on the dish holder of the microscope and continuously perfused (1 ml/min) with bath solution. After formation of a Gigaohm seal between the patch electrodes and the cell (-ipette resistance range: 2.5 MΩ-6.0 MΩ; seal resistance range:>1 GΩ) the cell membrane across the pipette tip was ruptured to assure electrical access to the cell interior (whole-cell patch-configuration). For experiments using the QPatch system, cells were transferred as suspension to the QPatch system in the bath solution and automated whole cell recordings were performed.
Cells were voltage clamped at a holding potential of −80 mV. For the analysis of test articles, GABA receptors were stimulated by 2 μM GABA after sequential pre-incubation of increasing concentrations of the test article. Pre-incubation duration was 30 s and the duration of the GABA stimulus was 2s. Test articles were dissolved in DMSO to form stock solutions (10 mM). Test articles were diluted to 0.01, 0.1, 1, and 10 μM in bath solution. All concentrations of test articles were tested on each cell. The relative percentage potentiation was defined as the peak amplitude in response to GABA EC20 in the presence of the test article divided by the peak amplitude in response to GABA EC20 alone, multiplied by 100. For Table 2. GABAA receptors α1β2γ2 and α4β3δ% efficacy: “A” 10-100, “B”>100-500, “C”>500; D indicates the data is not available or has not been determined.

[3] = target: α1β2γ2 GABAA receptors (Homo sapiens (Human), UniProt P14867+P47870); test: Patch clamp electrophysiology (QPatch) of recombinant α1β2γ2 GABAA receptors in LTK cells; format: cell-based; conditions: 10 μM test article, GABA EC20 = 2 μM, read-out: GABA (α1β2γ2) Qpatch in Ltk, % efficacy at 10 μM
Outline: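 Whole-cell currents were recorded at −80 mV and room temperature: α1β2γ2 in stably transfected LTK cells on QPatch, and α4β3δ in transiently transfected CHO cells by manual patch. Each cell was pre-incubated 30 s with 0.01, 0.1, 1 and 10 μM compound in sequence, then given a 2 s pulse of 2 μM GABA (EC20). Efficacy is peak current relative to GABA alone ×100.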

SMILES	minimal effective dose [1]	Emax at 10 µM [2]	Emax at 10 µM [3]
C[C@@]1(O)CC[C@@]2(C)[C@H](CC[C@@H]3[C@@H]2CC[C@]2(C)[C@@H](C(=O)Cn4ncnn4)CC[C@@H]32)C1 [Compound 54]	1 to 5 mg/kg	–	–
COC[C@@]1(O)CC[C@@]2(C)[C@@H](CC[C@@H]3[C@@H]2CC[C@]2(C)[C@@H](C(=O)Cn4nnnc4C)CC[C@@H]32)C1 [Compound 193]	1 to 5 mg/kg	> 500%	> 500%
COC[C@@]1(O)CC[C@@]2(C)[C@@H](CC[C@@H]3[C@@H]2CC[C@]2(C)[C@@H](C(=O)Cn4nnc(C)n4)CC[C@@H]32)C1 [Compound 194]	≤ 1 mg/kg	> 500%	–
Cc1nnn(CC(=O)[C@H]2CC[C@H]3[C@@H]4CC[C@H]5C[C@](C)(O)CC[C@]5(C)[C@H]4CC[C@]23C)n1 [Compound 206]	≤ 1 mg/kg	> 500%	–
C[C@@]1(O)CC[C@@]2(C)[C@H](CC[C@@H]3[C@@H]2CC[C@]2(C)[C@@H](C(=O)Cn4nccn4)CC[C@@H]32)C1 [Compound 207]	≥ 5 mg/kg	> 500%	–
